Experimental data taken from patent publication US20230339891A1, “URACIL DERIVATIVES AS MER-AXL INHIBITORS” (BRISTOL-MYERS SQUIBB COMPANY, priority 2018, published 2023).

Legend:
GST-MERTK 578-872 = GST-MERTK 578-872 (Homo sapiens (Human), UniProt Q12866); assay: MERTK kinase homogeneous time resolved fluorescence (HTRF) binding assay; conditions: 1 nM kinase, fluorescein-labeled kinase tracer at Kd, 60 minutes at room temperature; read-out: Mer HTRF IC50
Method: (§1) MERTK, AXL, TYRO3 Kinase Homogeneous Time Resolved Fluorescence (HTRF) Assay
(§2) Assays were performed in black, flat-bottom, 1536-well plates. The reactions were incubated at room temperature for 60 minutes, following which the HTRF signals, ratio of fluorescence intensities at emission wavelengths for fluorescein acceptor (520 nm) and terbium donor (495 nm), the 520/495 ratio, were measured on the Envision Plate reader. Inhibition data were calculated from the 520/495 ratio generated by the no protein control reactions for 100% inhibition and vehicle-only reactions for 0% inhibition, and dose response curves generated to determine the concentration required for inhibiting 50% of the HTRF signal (IC50). Compounds were dissolved at 10 mM in dimethylsulfoxide (DMSO) and evaluated at eleven concentrations.

HIS-AXL 473-End = HIS-AXL 473-End (Homo sapiens (Human), UniProt P30530); assay: AXL kinase homogeneous time resolved fluorescence (HTRF) binding assay; conditions: 1 nM kinase, fluorescein-labeled kinase tracer at Kd, 60 minutes at room temperature
Sequence of HIS-AXL 473-End (P30530 473-894): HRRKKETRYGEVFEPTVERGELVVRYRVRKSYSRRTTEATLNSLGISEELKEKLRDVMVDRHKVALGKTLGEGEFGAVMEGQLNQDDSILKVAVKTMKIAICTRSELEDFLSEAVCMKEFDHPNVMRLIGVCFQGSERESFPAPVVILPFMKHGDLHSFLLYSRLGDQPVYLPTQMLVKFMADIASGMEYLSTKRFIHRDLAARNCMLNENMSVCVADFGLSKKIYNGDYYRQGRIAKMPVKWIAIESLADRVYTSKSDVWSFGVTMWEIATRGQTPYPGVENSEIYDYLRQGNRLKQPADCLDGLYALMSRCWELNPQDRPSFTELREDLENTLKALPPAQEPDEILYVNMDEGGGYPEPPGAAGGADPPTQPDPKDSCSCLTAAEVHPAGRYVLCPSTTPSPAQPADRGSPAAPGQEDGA
Method: as §1, §2

Sequence of GST-MERTK 578-872 (Q12866 578-872): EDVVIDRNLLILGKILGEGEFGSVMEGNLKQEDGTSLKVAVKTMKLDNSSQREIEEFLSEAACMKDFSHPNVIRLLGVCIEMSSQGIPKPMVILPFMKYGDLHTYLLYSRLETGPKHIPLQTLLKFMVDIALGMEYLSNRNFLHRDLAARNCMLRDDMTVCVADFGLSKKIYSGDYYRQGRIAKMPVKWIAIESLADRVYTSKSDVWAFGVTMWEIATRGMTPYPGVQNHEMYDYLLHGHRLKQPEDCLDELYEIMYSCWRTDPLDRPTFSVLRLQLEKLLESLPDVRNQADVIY

SMILES | IC50 (GST-MERTK 578-872) [nM] | IC50 (HIS-AXL 473-End) [nM]
CC(C)n1cc(C(=O)Nc2ccc(Oc3ccnc(Nc4ccc(S(=O)(=O)N(C)C)cn4)c3)c(F)c2)c(=O)n(-c2ccccc2)c1=O [Example 42] | 21 | 7.4
CN(C)S(=O)(=O)c1ccc(Nc2cc(Oc3ccc(NC(=O)c4cn(C5CC5)c(=O)n(-c5ccccc5)c4=O)cc3F)ccn2)nc1 [Example 43] | 21 | 222
CN(C)S(=O)(=O)c1ccc(Nc2cc(Oc3ccc(NC(=O)c4cn(C)c(=O)n(-c5ccc(F)cc5)c4=O)cc3F)ccn2)nc1 [Example 44] | 71 | 19
COC[C@H](C)n1cc(C(=O)Nc2ccc(Oc3ccnc(Nc4ccc(S(=O)(=O)N(C)C)cn4)c3)c(F)c2)c(=O)n(-c2ccc(F)cc2)c1=O [Example 45] | 40 | 21
CN(C)S(=O)(=O)c1ccc(Nc2cc(Oc3ccc(NC(=O)c4cn([C@@H]5CCOC5)c(=O)n(-c5ccc(F)cc5)c4=O)cc3F)ccn2)nc1 [Example 46] | 12 | 5.4
CN(C)S(=O)(=O)c1ccc(Nc2cc(Oc3ccc(NC(=O)c4cn([C@H]5CCOC5)c(=O)n(-c5ccc(F)cc5)c4=O)cc3F)ccn2)nc1 [Example 47] | 7.9 | 6
CC(C)n1cc(C(=O)Nc2ccc(Oc3ccnc(Nc4ccc(S(=O)(=O)N(C)C)cn4)c3)c(F)c2)c(=O)n(-c2ccc(F)cn2)c1=O [Example 48] | 15 | 4.4
CC(C)n1cc(C(=O)Nc2ccc(Oc3ccnc(Nc4ccc(S(=O)(=O)N(C)C)cn4)c3)c(F)c2)c(=O)n(Cc2ccccc2)c1=O [Example 49] | 3310 | 110
CC(C)n1cc(C(=O)Nc2ccc(Oc3ccnc(Nc4ccc(S(=O)(=O)N(C)C)cn4)c3)c(F)c2)c(=O)n(C2CCCCC2)c1=O [Example 53] | 487 | 256
CC(C)n1cc(C(=O)Nc2ccc(Oc3ccnc(Nc4ccc(S(=O)(=O)N(C)C)cn4)c3)c(F)c2)c(=O)n(Cc2ccncc2)c1=O [Example 58] | 201 | 287
Cc1ccc(-n2c(=O)c(C(=O)Nc3ccc(Oc4ccnc(Nc5ccc(S(=O)(=O)N(C)C)cn5)c4)c(F)c3)cn(C(C)C)c2=O)cc1 [Example 62, N-{4-[(2-{[5-(Dimethylsulfamoyl)pyridin-2-yl]amino}pyridin-4-yl)oxy]-3-fluorophenyl}-3-(4-methylphenyl)-2,4-dioxo-1-(propan-2-yl)-1,2,3,4-tetrahydropyrimidine-5-carboxamide] | 23 | 4.6
CC(=O)c1ccc(-n2c(=O)c(C(=O)Nc3ccc(Oc4ccnc(Nc5ccc(S(=O)(=O)N(C)C)cn5)c4)c(F)c3)cn(C(C)C)c2=O)cc1 [Example 64] | 814 | 181
CC(C)n1cc(C(=O)Nc2ccc(Oc3ccnc(Nc4ccc(S(=O)(=O)N(C)C)cn4)c3)c(F)c2)c(=O)n(-c2ccc(C(F)(F)F)cc2)c1=O [Example 65] | 127 | 100
CC(C)n1cc(C(=O)Nc2ccc(Oc3ccnc(Nc4ccc(S(=O)(=O)N(C)C)cn4)c3)c(F)c2)c(=O)n(-c2ccc(Cl)cc2)c1=O [Example 66] | 29 | 31
CC(C)n1cc(C(=O)Nc2ccc(Oc3ccnc(Nc4ccc(S(=O)(=O)N(C)C)cn4)c3)c(F)c2)c(=O)n(-c2cccc(F)c2)c1=O [Example 68] | 20 | 7.1
CC(C)n1cc(C(=O)Nc2ccc(Oc3ccnc(Nc4ccc(S(=O)(=O)N(C)C)cn4)c3)c(F)c2)c(=O)n(-c2ccc(F)c(F)c2)c1=O [Example 69] | 23 | 18
Cc1cccc(-n2c(=O)c(C(=O)Nc3ccc(Oc4ccnc(Nc5ccc(S(=O)(=O)N(C)C)cn5)c4)c(F)c3)cn(C(C)C)c2=O)c1 [Example 70] | 14 | 14
COc1cccc(-n2c(=O)c(C(=O)Nc3ccc(Oc4ccnc(Nc5ccc(S(=O)(=O)N(C)C)cn5)c4)c(F)c3)cn(C(C)C)c2=O)c1 [Example 71] | 40 | 12
